Target: T1, purified human HDAC6 (Homo sapiens, UniProt Q9UBN7)
T1 construct: purchased BPS Bioscience 5006
T1 sequence (Q9UBN7 1-1215): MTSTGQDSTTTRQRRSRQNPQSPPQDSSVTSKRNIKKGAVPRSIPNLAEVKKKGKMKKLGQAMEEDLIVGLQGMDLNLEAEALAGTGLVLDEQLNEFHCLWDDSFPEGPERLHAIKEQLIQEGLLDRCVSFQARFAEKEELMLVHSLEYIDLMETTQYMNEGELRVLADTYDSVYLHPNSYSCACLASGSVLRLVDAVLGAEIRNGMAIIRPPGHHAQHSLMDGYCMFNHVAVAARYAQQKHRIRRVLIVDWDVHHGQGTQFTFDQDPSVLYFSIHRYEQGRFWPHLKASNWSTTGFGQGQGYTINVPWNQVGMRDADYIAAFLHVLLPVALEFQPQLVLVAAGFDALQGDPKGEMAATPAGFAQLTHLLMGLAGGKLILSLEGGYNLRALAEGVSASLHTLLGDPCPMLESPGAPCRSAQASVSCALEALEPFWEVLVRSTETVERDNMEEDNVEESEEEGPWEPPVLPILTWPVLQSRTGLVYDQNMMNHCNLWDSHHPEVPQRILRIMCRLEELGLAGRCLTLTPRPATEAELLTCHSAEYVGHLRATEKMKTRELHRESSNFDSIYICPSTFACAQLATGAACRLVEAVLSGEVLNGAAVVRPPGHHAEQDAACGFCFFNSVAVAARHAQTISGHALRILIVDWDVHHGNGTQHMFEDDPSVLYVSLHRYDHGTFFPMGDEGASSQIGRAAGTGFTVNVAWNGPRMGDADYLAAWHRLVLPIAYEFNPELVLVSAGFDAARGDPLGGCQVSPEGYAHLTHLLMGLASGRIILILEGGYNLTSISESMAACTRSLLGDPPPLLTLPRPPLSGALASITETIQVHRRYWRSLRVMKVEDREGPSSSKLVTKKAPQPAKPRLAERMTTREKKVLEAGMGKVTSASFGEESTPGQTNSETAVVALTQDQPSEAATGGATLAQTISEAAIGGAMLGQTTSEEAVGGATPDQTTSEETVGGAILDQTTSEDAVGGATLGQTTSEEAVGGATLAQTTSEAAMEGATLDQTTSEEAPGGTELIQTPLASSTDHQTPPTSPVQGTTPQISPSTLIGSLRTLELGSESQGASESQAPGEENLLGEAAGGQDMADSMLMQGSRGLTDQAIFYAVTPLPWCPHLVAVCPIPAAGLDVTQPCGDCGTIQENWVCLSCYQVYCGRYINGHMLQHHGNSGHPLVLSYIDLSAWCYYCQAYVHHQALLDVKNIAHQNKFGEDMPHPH
Experiment: HDAC6 Enzyme Assay
Type: biochemical
Settings: substrate Ac-Arg-Gly-Lys(Ac)-AMC peptide, 1 hour at 30° C.
Procedure: To measure the inhibition of HDAC6 activity, purified human HDAC6 (BPS Bioscience; Cat. No. 5006) is incubated with substrate Ac-Arg-Gly-Lys(Ac)-AMC peptide (Bachem Biosciences; Cat. No. I-1925) for 1 hour at 30° C. in the presence of test compounds or vehicle DMSO control. The reaction is stopped with the HDAC inhibitor trichostatin A (Sigma; Cat. No. T8552) and the amount of Arg-Gly-Lys-AMC generated is quantitated by digestion with trypsin (Sigma; Cat. No. T1426) and subsequent measurement of the amount of AMC released using a fluorescent plate reader (Pherastar; BMG Technologies) set at Ex 340 nm and Em 460 nm. Concentration response curves are generated by calculating the fluorescence increase in test compound-treated samples relative to DMSO-treated controls, and enzyme inhibition (IC50) values are determined from those curves.

| IC50 [nM] | SMILES |
| --- | --- |
| < 100 | Cc1cccc(NC(=O)NC(C)c2ccc(C(=O)NO)s2)c1 (centres unmarked) [Compound I-30, N-hydroxy-5-[1-({[(3-methylphenyl)amino]carbonyl}amino)ethyl]thiophene-2-carboxamide] |
| < 100 | COc1ccc(C)cc1NC(=O)NC(C)c1ccc(C(=O)NO)s1 (centres unmarked) [Compound I-19, N-hydroxy-5-[1-({[(2-methoxy-5-methylphenyl)amino]carbonyl}amino)ethyl]thiophene-2-carboxamide] |
| < 100 | C[C@@H](NC(=O)c1ccc(-c2ccccc2)cc1)c1ccc(C(=O)NO)s1 [Compound I-46, 5-{(1R)-1-[(biphenyl-4-ylcarbonyl)amino]ethyl}-N-hydroxythiophene-2-carboxamide] |
| < 100 | CC(NC(=O)Nc1ccccc1)c1ccc(C(=O)NO)s1 (centres unmarked) [Compound I-12, 5-{1-[(anilinocarbonyl)amino]ethyl}-N-hydroxythiophene-2-carboxamide] |
| < 100 | C[C@@H](NC(=O)c1cc(Cl)c(Cl)n1C)c1ccc(C(=O)NO)s1 [Compound I-17, 4,5-dichloro-N-((1R)-1-{5-[(hydroxyamino)carbonyl]-2-thienyl}ethyl)-1-methyl-1H-pyrrole-2-carboxamide] |
| < 100 | CC(NC(=O)Nc1ccc(Cl)c(C(F)(F)F)c1)c1ccc(C(=O)NO)s1 (centres unmarked) [Compound I-10, 5-{1-[({[4-chloro-3-(trifluoromethyl)phenyl]amino}carbonyl)amino]ethyl}-N-hydroxythiophene-2-carboxamide] |
| 100 to 500 | Cc1cccc(C)c1NC(=O)NC(C)c1ccc(C(=O)NO)s1 (centres unmarked) [Compound I-32, 5-[1-({[(2,6-dimethylphenyl)amino]carbonyl}amino)ethyl]-N-hydroxythiophene-2-carboxamide] |
| < 100 | CC(NC(=O)Nc1ccccc1Oc1ccccc1)c1ccc(C(=O)NO)s1 (centres unmarked) [Compound I-44, N-hydroxy-5-[1-({[(2-phenoxyphenyl)amino]carbonyl}amino)ethyl]thiophene-2-carboxamide] |
| < 100 | C[C@H](NC(=O)c1cc2ccccc2s1)c1ccc(C(=O)NO)s1 [Compound I-21, N-((1S)-1-{5-[(hydroxyamino)carbonyl]-2-thienyl}ethyl)-1-benzothiophene-2-carboxamide] |
| 100 to 500 | CC(NC(=O)Nc1cc(Cl)cc(Cl)c1)c1ccc(C(=O)NO)s1 (centres unmarked) [Compound I-4, 5-[1-({[(3,5-dichlorophenyl)amino]carbonyl}amino)ethyl]-N-hydroxythiophene-2-carboxamide] |
| < 100 | Cc1c(C(=O)N[C@H](C)c2ccc(C(=O)NO)s2)oc2ccccc12 [Compound I-15, N-((1R)-1-{5-[(hydroxyamino)carbonyl]-2-thienyl}ethyl)-3-methyl-1-benzofuran-2-carboxamide] |

Second part, the compound before the results:

| SMILES | IC50 [nM] |
| --- | --- |
| C[C@@H](NC(=O)c1cccn1C)c1ncc(C(=O)NO)s1 [Compound I-174, N-hydroxy-2-((1R)-1-{[(1-methyl-1H-pyrrol-2-yl)carbonyl]amino}ethyl)-1,3-thiazole-5-carboxamide] | 100 to 500 |
| Cc1nc(-c2ccccn2)sc1C(=O)N[C@@H](C)c1ncc(C(=O)NO)s1 [Compound I-168, N-((1S)-1-{5-[(hydroxyamino)carbonyl]-1,3-thiazol-2-yl}ethyl)-4-methyl-2-pyridin-2-yl-1,3-thiazole-5-carboxamide] | < 100 |
| C[C@H](NC(=O)c1ccc(-c2ccccc2)cc1)c1ncc(C(=O)NO)s1 [Compound I-161, 2-{(1S)-1-[(biphenyl-4-ylcarbonyl)amino]ethyl}-N-hydroxy-1,3-thiazole-5-carboxamide] | < 100 |
| CC(NC(=O)C1(c2ccc(Cl)cc2)CCC1)c1ncc(C(=O)NO)s1 (centres unmarked) [Compound I-55, 2-[1-({[1-(4-chlorophenyl)cyclobutyl]carbonyl}amino)ethyl]-N-hydroxy-1,3-thiazole-5-carboxamide] | > 500 |
| C[C@@H](NS(=O)(=O)c1ccc(C(F)(F)F)cc1)c1ccc(C(=O)NO)s1 [Compound I-23, N-hydroxy-5-[(1R)-1-({[4-(trifluoromethyl)phenyl]sulfonyl}amino)ethyl]thiophene-2-carboxamide] | 100 to 500 |
| C[C@H](NC(=O)C1(C)CCCCC1)c1ncc(C(=O)NO)s1 [Compound I-171, N-hydroxy-2-((1S)-1-{[(1-methylcyclohexyl)carbonyl]amino}ethyl)-1,3-thiazole-5-carboxamide] | > 500 |
| C[C@@H](NC(=O)c1cc2ccccc2s1)c1ncc(C(=O)NO)s1 [Compound I-178, 2-{(1R)-1-[(1-benzothien-2-ylcarbonyl)amino]ethyl}-N-hydroxy-1,3-thiazole-5-carboxamide] | < 100 |
| CC(NS(=O)(=O)c1ccccc1)c1ccc(C(=O)NO)s1 (centres unmarked) [Compound I-48, N-hydroxy-5-{1-[(phenylsulfonyl)amino]ethyl}thiophene-2-carboxamide] | 100 to 500 |
| Cc1nc(-c2ccccn2)sc1C(=O)N[C@H](C)c1cc(C(=O)NO)on1 [Compound I-163, N-hydroxy-3-((1R)-1-{[(4-methyl-2-pyridin-2-yl-1,3-thiazol-5-yl)carbonyl]amino}ethyl)isoxazole-5-carboxamide] | > 500 |
| C[C@H](NC(=O)c1ccc(S(C)(=O)=O)cc1)c1ncc(C(=O)NO)s1 [Compound I-177, N-hydroxy-2-((1S)-1-{[4-(methylsulfonyl)benzoyl]amino}ethyl)-1,3-thiazole-5-carboxamide] | 100 to 500 |
| COc1ccc(C(=O)N[C@H](C)c2cc(C(=O)NO)on2)cc1 [Compound I-164, N-hydroxy-3-{(1R)-1-[(4-methoxybenzoyl)amino]ethyl}isoxazole-5-carboxamide] | > 500 |
| C[C@H](NC(=O)C12CC3CC(CC(C3)C1)C2)c1ncc(C(=O)NO)s1 [Compound I-179, 2-((1S)-1-{[1-adamantylcarbonyl]amino}ethyl)-N-hydroxy-1,3-thiazole-5-carboxamide] | > 500 |
| C[C@@H](NC(=O)C(C)(C)C)c1cc(C(=O)NO)on1 [Compound I-182, 3-{(1R)-1-[(2,2-dimethylpropanoyl)amino]ethyl}-N-hydroxyisoxazole-5-carboxamide] | > 500 |
| C[C@@H](NC(=O)c1cc2ccccc2s1)c1cc(C(=O)NO)on1 [Compound I-176, 3-{(1R)-1-[(1-benzothien-2-ylcarbonyl)amino]ethyl}-N-hydroxyisoxazole-5-carboxamide] | > 500 |
| C[C@@H](NC(=O)C12CC3CC(CC(C3)C1)C2)c1ccc(C(=O)NO)s1 [Compound I-11, 5-{(1R)-1-[(1-adamantylcarbonyl)amino]ethyl}-N-hydroxythiophene-2-carboxamide] | > 500 |
| CC(NC(=O)NC1CCCC1)c1ccc(C(=O)NO)s1 (centres unmarked) [Compound I-1, 5-(1-(3-cyclopentylureido)ethyl)-N-hydroxythiophene-2-carboxamide] | < 100 |
| CC(NC(=O)C(C)(C)C)c1ncc(C(=O)NO)s1 (centres unmarked) [Compound I-53, 2-{1-[(2,2-dimethylpropanoyl)amino]ethyl}-N-hydroxy-1,3-thiazole-5-carboxamide] | > 500 |
| Cc1nc(-c2ccccn2)sc1C(=O)N[C@H](C)c1cc(C(=O)NO)cn1C [Compound I-156, N-((1R)-1-{4-[(hydroxyamino)carbonyl]-1-methyl-1H-pyrrol-2-yl}ethyl)-4-methyl-2-pyridin-2-yl-1,3-thiazole-5-carboxamide] | > 500 |

Source: US8546588B2, “Substituted hydroxamic acids and uses thereof” (Millennium Pharmaceuticals, Inc., priority 2010, dated 2013)
